In patent publication US20100151062A1, “Determining nutrients for animals through gene expression” (priority 2008, published 2010):

System: cartilage cells of individual affected unhealthy dogs
Assay: In vitro culture of cartilage cells of affected dogs with curcumin or andrographolide, microarray
Assay type: cell-based, dog
Conditions: mean; for Fold change of gene expression, ACTB / Fold change of gene expression, ACTR3 / Fold change of gene expression, ADK / Fold change of gene expression, ANKRD10 / Fold change of gene expression, CAV1 / Fold change of gene expression, CDH11 / Fold change of gene expression, COL3A1 / Fold change of gene expression, COX1 / Fold change of gene expression, COX2 / Fold change of gene expression, IGFBP7 / Fold change of gene expression, IL2 / Fold change of gene expression, MMP2 / Fold change of gene expression, NOS2 / Fold change of gene expression, PTGS-2 / Fold change of gene expression, SPARC / Fold change of gene expression, STMN1 / Fold change of gene expression, TIMP1 / Fold change of gene expression, TIMP2 / Fold change of gene expression, TNF-a / Fold change of gene expression, TUBA / Fold change of gene expression, TUBB: 60 mg/l vs 0, 6 hours, cartilage cells of affected dogs; for Fold change of gene expression, ACTB / Net effect of the NBC on fold change, ACTB: gene ACTB; for Net effect of the NBC on fold change, ACTB / Net effect of the NBC on fold change, ACTR3 / Net effect of the NBC on fold change, ADK / Net effect of the NBC on fold change, ANKRD10 / Net effect of the NBC on fold change, CAV1 / Net effect of the NBC on fold change, CDH11 / Net effect of the NBC on fold change, COL3A1 / Net effect of the NBC on fold change, COX1 / Net effect of the NBC on fold change, COX2 / Net effect of the NBC on fold change, IGFBP7 / Net effect of the NBC on fold change, IL2 / Net effect of the NBC on fold change, MMP2 / Net effect of the NBC on fold change, NOS2 / Net effect of the NBC on fold change, PTGS-2 / Net effect of the NBC on fold change, SPARC / Net effect of the NBC on fold change, STMN1 / Net effect of the NBC on fold change, TIMP1 / Net effect of the NBC on fold change, TIMP2 / Net effect of the NBC on fold change, TNF-a / Net effect of the NBC on fold change, TUBA / Net effect of the NBC on fold change, TUBB: 60 mg/l, 6 hours; for Fold change of gene expression, ACTR3 / Net effect of the NBC on fold change, ACTR3: gene ACTR3; for Fold change of gene expression, ADK / Net effect of the NBC on fold change, ADK: gene ADK; for Fold change of gene expression, ANKRD10 / Net effect of the NBC on fold change, ANKRD10: gene ANKRD10; for Fold change of gene expression, CAV1 / Net effect of the NBC on fold change, CAV1: gene CAV1; for Fold change of gene expression, CDH11 / Net effect of the NBC on fold change, CDH11: gene CDH11; for Fold change of gene expression, COL3A1 / Net effect of the NBC on fold change, COL3A1: gene COL3A1; for Fold change of gene expression, COX1 / Net effect of the NBC on fold change, COX1: gene COX1; for Fold change of gene expression, COX2 / Net effect of the NBC on fold change, COX2: gene COX2; for Fold change of gene expression, IGFBP7 / Net effect of the NBC on fold change, IGFBP7: gene IGFBP7; for Fold change of gene expression, IL2 / Net effect of the NBC on fold change, IL2: gene IL2; for Fold change of gene expression, MMP2 / Net effect of the NBC on fold change, MMP2: gene MMP2; for Fold change of gene expression, NOS2 / Net effect of the NBC on fold change, NOS2: gene NOS2; for Fold change of gene expression, PTGS-2 / Net effect of the NBC on fold change, PTGS-2: gene PTGS-2; for Fold change of gene expression, SPARC / Net effect of the NBC on fold change, SPARC: gene SPARC; for Fold change of gene expression, STMN1 / Net effect of the NBC on fold change, STMN1: gene STMN1; for Fold change of gene expression, TIMP1 / Net effect of the NBC on fold change, TIMP1: gene TIMP1; for Fold change of gene expression, TIMP2 / Net effect of the NBC on fold change, TIMP2: gene TIMP2; for Fold change of gene expression, TNF-a / Net effect of the NBC on fold change, TNF-a: gene TNF-a; for Fold change of gene expression, TUBA / Net effect of the NBC on fold change, TUBA: gene TUBA; for Fold change of gene expression, TUBB / Net effect of the NBC on fold change, TUBB: gene TUBB
Protocol: Total RNA of cells was extracted using phenol/guanidine HCl reagents (Trizol, Invitrogen). RNA quality integrity was analysed using the Agilent 2100 Bioanalyser (Agilent Technologies) of the sample. The samples determined to have no, or minimal, loss of integrity and thus were considered suitable for use in experiments. mRNA was amplified for each sample, starting with 500 ng total RNA using a commercially available kit (Ambion T7 MEGAscript high yield transcription kit, Ambion). The mRNA was quantified using a spectrophotometer. mRNA was directly reverse transcribed to cDNA from 25 μg of total RNA using the Superscript indirect cDNA labeling Core kit (Invitrogen, Milan, Italy).
Two micrograms of cDNA were labelled with Cyanine-3dCTP (Cy3) or Cyanine-5dCTP (Cy5) fluorochromes using the cDNA labeling purification module kit (Invitrogen, Milan, Italy). Samples were hybridised to a canine specific, whole genome 44k spot 60mer oligonucleotide (Agilent Technologies). The labelled cDNA was appropriately coupled and used for competitive hybridization on the same microarray at 42° C. for 16 h. Fluorescence incorporation was determined using a spectrophotometer. The relative intensity of labelled cDNA in was acquired with ScanArray LITE scanner (PerkinElmer Life Sciences, Inc).
Expression data were then exported into Excel 2007 and processed with SAM software; comparison between groups was achieved using paired student's t tests. […] Correction for multiple hypothesis testing was performed using the false discovery rate (FDR).
Searching within the nutrient data set for biologically active nutrients with anti-arthritic and anti-inflammatory properties identified curcumin and androgropholide as the appropriated compositions. The cartilage cells of individual affected unhealthy dogs were cultured in vitro with 0, or 60 mg/l of curcumin or androgropholide for 6 hours. At the end of the incubation, these cartilage cells from individual affected dogs were washed and used for RNA extraction. For the microarray analysis, co-hybridisation of the RNA from 0 and 60 mg/l was conducted, using the material and the methods described previously.

## C=C1CC[C@@H]2[C@](C)(CO)[C@H](O)CC[C@@]2(C)[C@@H]1C/C=C1/C(=O)OC[C@H]1O [Androgrpholide]
  Fold change of gene expression, ACTB: −1.0
  Net effect of the NBC on fold change, ACTB: 2.8
  Fold change of gene expression, ACTR3: 1.0
  Net effect of the NBC on fold change, ACTR3: 1.3
  Fold change of gene expression, ADK: 0.0
  Net effect of the NBC on fold change, ADK: 3.6
  Fold change of gene expression, ANKRD10: 0.0
  Net effect of the NBC on fold change, ANKRD10: 5.2
  Fold change of gene expression, CAV1: 0.0
  Net effect of the NBC on fold change, CAV1: 4.8
  Fold change of gene expression, CDH11: −1.0
  Net effect of the NBC on fold change, CDH11: 5.9
  Fold change of gene expression, COL3A1: −2.0
  Net effect of the NBC on fold change, COL3A1: 7.5
  Fold change of gene expression, COX1: 0.0
  Net effect of the NBC on fold change, COX1: 0.8
  Fold change of gene expression, COX2: 0.0
  Net effect of the NBC on fold change, COX2: 23.0
  Fold change of gene expression, IGFBP7: −2.0
  Net effect of the NBC on fold change, IGFBP7: 1.7
  Fold change of gene expression, IL2: −6.0
  Net effect of the NBC on fold change, IL2: −3.0
  Fold change of gene expression, MMP2: −5.0
  Net effect of the NBC on fold change, MMP2: 5.0
  Fold change of gene expression, NOS2: −6.0
  Net effect of the NBC on fold change, NOS2: −5.8
  Fold change of gene expression, PTGS-2: −5.0
  Net effect of the NBC on fold change, PTGS-2: −3.8
  Fold change of gene expression, SPARC: 0.0
  Net effect of the NBC on fold change, SPARC: 6.3
  Fold change of gene expression, STMN1: 0.0
  Net effect of the NBC on fold change, STMN1: 6.2
  Fold change of gene expression, TIMP1: 0.0
  Net effect of the NBC on fold change, TIMP1: 6.2
  Fold change of gene expression, TIMP2: 0.0
  Net effect of the NBC on fold change, TIMP2: 2.0
  Fold change of gene expression, TNF-a: −8.0
  Net effect of the NBC on fold change, TNF-a: 2.0
  Fold change of gene expression, TUBA: 0.0
  Net effect of the NBC on fold change, TUBA: 4.7
  Fold change of gene expression, TUBB: 0.0
  Net effect of the NBC on fold change, TUBB: 4.8

## COc1cc(/C=C/C(=O)CC(=O)/C=C/c2ccc(O)c(OC)c2)ccc1O [curcumin]
  Fold change of gene expression, ACTB: −5.0
  Net effect of the NBC on fold change, ACTB: −1.2
  Fold change of gene expression, ACTR3: −1.0
  Net effect of the NBC on fold change, ACTR3: −4.0
  Fold change of gene expression, ADK: −4.3
  Net effect of the NBC on fold change, ADK: −1.4
  Fold change of gene expression, ANKRD10: −7.0
  Net effect of the NBC on fold change, ANKRD10: −1.8
  Fold change of gene expression, CAV1: −3.0
  Net effect of the NBC on fold change, CAV1: 1.8
  Fold change of gene expression, CDH11: −6.0
  Net effect of the NBC on fold change, CDH11: 0.9
  Fold change of gene expression, COL3A1: −6.0
  Net effect of the NBC on fold change, COL3A1: 3.5
  Fold change of gene expression, COX1: −1.0
  Net effect of the NBC on fold change, COX1: −0.2
  Fold change of gene expression, COX2: −15.0
  Net effect of the NBC on fold change, COX2: 8.0
  Fold change of gene expression, IGFBP7: −1.5
  Net effect of the NBC on fold change, IGFBP7: 2.2
  Fold change of gene expression, IL2: −4.0
  Net effect of the NBC on fold change, IL2: −1.0
  Fold change of gene expression, MMP2: −6.5
  Net effect of the NBC on fold change, MMP2: 3.5
  Fold change of gene expression, NOS2: −0.5
  Net effect of the NBC on fold change, NOS2: −0.3
  Fold change of gene expression, PTGS-2: −3.0
  Net effect of the NBC on fold change, PTGS-2: −1.8
  Fold change of gene expression, SPARC: −4.0
  Net effect of the NBC on fold change, SPARC: 2.3
  Fold change of gene expression, STMN1: −5.0
  Net effect of the NBC on fold change, STMN1: 1.2
  Fold change of gene expression, TIMP1: −5.0
  Net effect of the NBC on fold change, TIMP1: 1.2
  Fold change of gene expression, TIMP2: −2.0
  Net effect of the NBC on fold change, TIMP2: 0.0
  Fold change of gene expression, TNF-a: −14.5
  Net effect of the NBC on fold change, TNF-a: −4.5
  Fold change of gene expression, TUBA: −2.0
  Net effect of the NBC on fold change, TUBA: 2.7
  Fold change of gene expression, TUBB: −5.0
  Net effect of the NBC on fold change, TUBB: −0.2
